Experimental findings from ChEMBL document CHEMBL1137226, “Structure modifications of 6-aminoquinolones with potent anti-HIV activity” (J Med Chem, 2004) are described below.

In experiment [1] the test system is MT4. Nature of the experiment: Maximum protection (%) of MT-4 cells from HIV-1 (IIIB) induced cytopathogenicity; value ranges from 25-30%. Type of experiment: functional, Homo sapiens.
Experiment [2] has as its system MT4. The experiment is described as follows: Selectivity index towards HIV-1 (IIIB) in MT-4 cells. In kind it is functional, Homo sapiens.
For experiment [3], the system named is MT4. Nature of the experiment: Selectivity index towards HIV-2 (ROD) in MT-4 cells. Type of experiment: functional, Homo sapiens.
In experiment [4] the test system is MT4. Nature of the experiment: Concentration required for protection of MT-4 cells from HIV-2 (ROD) induced cytopathogenicity in MTT assay. In kind it is functional, cell-based. Particulars: Homo sapiens. (Protection from cytopathic effect is a common read-out in antiviral testing.)
The test system of experiment [5] is MT4. Nature of the experiment: Maximum protection (%) of MT-4 cells from HIV-2 (ROD) induced cytopathogenicity; value ranges from 51-81%. Type of experiment: functional, Homo sapiens.
In experiment [6] the test system is MT4. The experiment is described as follows: Concentration required for protection of MT-4 cells from HIV-1 (IIIB) induced cytopathogenicity in MTT assay. In kind it is functional, cell-based. To be noted: Homo sapiens.
The subject of experiment [7] is MT4. The experiment is described as follows: Concentration of compound that reduces the viability of mock-infected MT-4 cells by 50%. Type of experiment: functional. Particulars: Homo sapiens.
In experiment [8] the test system is MT4. The experiment is described as follows: Maximum protection (%) of MT-4 cells from HIV-2 (ROD) induced cytopathogenicity; value ranges from 17-31%. In kind it is functional, Homo sapiens.
Experiment [9] has as its system MT4. Nature of the experiment: Maximum protection (%) of MT-4 cells from HIV-1 (IIIB) induced cytopathogenicity; value ranges from 7-30%. Type of experiment: functional, Homo sapiens.
The subject of experiment [10] is MT4. The experiment is described as follows: Maximum protection (%) of MT-4 cells from HIV-2 (ROD) induced cytopathogenicity. In kind it is functional, Homo sapiens.
Experiment [11] relates to MT4. The experiment is described as follows: Maximum protection (%) of MT-4 cells from HIV-1 (IIIB) induced cytopathogenicity; value ranges from 10-27%. In kind it is functional, Homo sapiens.
Experiment [12] relates to MT4. Nature of the experiment: Maximum protection (%) of MT-4 cells from HIV-2 (ROD) induced cytopathogenicity; value ranges from 29-63%. In kind it is functional, Homo sapiens.
Experiment [13] relates to MT4. Nature of the experiment: Maximum protection (%) of MT-4 cells from HIV-1 (IIIB) induced cytopathogenicity; value ranges from 29-40%. Type of experiment: functional, Homo sapiens.
Experiment [14] deals with MT4. The experiment is described as follows: Maximum protection (%) of MT-4 cells from HIV-1 (IIIB) induced cytopathogenicity; value ranges from 0-1%. In kind it is functional, Homo sapiens.
Experiment [15] concerns MT4. Nature of the experiment: Maximum protection (%) of MT-4 cells from HIV-1 (IIIB) induced cytopathogenicity; value ranges from 4-8%. In kind it is functional, Homo sapiens.
Experiment [16] has as its system CCRF-CEM. The experiment is described as follows: Selectivity index towards HIV-2 (ROD) in CEM cells. Type of experiment: functional, Homo sapiens.
Experiment [17] is described as follows: Concentration of compound that reduces the viability of mock-infected peripheral blood mononuclear cells by 50%. In kind it is functional. To be noted: Homo sapiens.
For experiment [18], the system named is CCRF-CEM. The experiment is described as follows: Concentration of compound that reduces the viability of mock-infected CEM cells by 50%. Type of experiment: functional. To be noted: Homo sapiens.
Experiment [19] is described as follows: Concentration of compound required for reduction of p24 production in HIV-1 (IIIB) infected peripheral blood mononuclear cells. In kind it is functional. Particulars: Homo sapiens.
In experiment [20] the test system is MT4. The experiment is described as follows: Maximum protection (%) of MT-4 cells from HIV-2 (ROD) induced cytopathogenicity; value ranges from 43-78%. In kind it is functional, Homo sapiens.
Experiment [21] has as its system CCRF-CEM. The experiment is described as follows: Concentration of compound required for protection of CEM cells from HIV-2 (ROD) induced cytopathogenicity. Type of experiment: functional, cell-based. To be noted: Homo sapiens.
Experiment [22] concerns CCRF-CEM. The experiment is described as follows: Selectivity index towards HIV-1 (IIIB) in CEM cells. In kind it is functional, Homo sapiens.
Experiment [23] relates to MT4. Nature of the experiment: Maximum protection (%) of MT-4 cells from HIV-1 (IIIB) induced cytopathogenicity; value ranges from 57-110%. In kind it is functional, Homo sapiens.
Experiment [24] in a line: Selectivity index towards HIV-1 (IIIB) in peripheral blood mononuclear cells. Type of experiment: functional, Homo sapiens.
Experiment [25] has as its system CCRF-CEM. The experiment is described as follows: Concentration of compound required for protection of CEM cells from HIV-1 (IIIB) induced cytopathogenicity. Particulars: Homo sapiens. In kind it is functional, cell-based.
For experiment [26], the system named is MT4. Nature of the experiment: Maximum protection (%) of MT-4 cells from HIV-2 (ROD) induced cytopathogenicity; value ranges from 58-83%. Type of experiment: functional, Homo sapiens.
Experiment [27] concerns MT4. The experiment is described as follows: Maximum protection (%) of MT-4 cells from HIV-1 (IIIB) induced cytopathogenicity; value ranges from 55-118%. Type of experiment: functional, Homo sapiens.

In brackets after ≈: the same amount, converted by molar mass.

Broadly, the EC50 is the concentration at which the effect is half-maximal. By CC50 is commonly meant the concentration giving 50% cytotoxicity. Read a low CC50 as greater toxicity to the cells. `Cn1cc(C(=O)O)c(=O)c2cc(N)c(N3CCN(c4nc5ccccc5s4)CC3)cc21`: the Protection in experiment [1] was below 30%; in experiment [5] it was below 81%. Also, the Selectivity index in experiment [2] is listed as below 1; in experiment [3] it was 5.1. The figures for the EC50 in [4] and in [6] were 0.0011 µg/mL (≈ 0.00253 µM) and above 0.0054 µg/mL, respectively. This compound also yielded a CC50 in experiment [7] of 0.0054 µg/mL (≈ 0.0124 µM).

Regarding `Cn1cc(C(=O)O)c(=O)c2cc(N)c(N3CCN(c4ccccc4F)CC3)cc21`, the Protection is below 31% in [8] and below 30% in experiment [9]. The EC50 in experiment [4] and in [6] was above 125 µg/mL throughout. Further, the CC50 in experiment [7] was above 125 µg/mL.

With `Cn1cc(C(=O)O)c(=O)c2cc(N)c(N3CCN(C4=Nc5ccccc5SC4)CC3)cc21`, the Protection is 15% in [10] and below 27% in experiment [11]. In addition, the Selectivity index in experiment [2] and in [3] was below 1 throughout. The EC50 in experiment [4] and in experiment [6] was above 2.14 µg/mL each time. In experiment [7], this compound registered a CC50 of 2.14 µg/mL (≈ 4.76 µM).

Consider `Cc1nnc(N2CCN(c3cc4c(cc3N)c(=O)c(C(=O)O)cn4C)CC2)s1`, for which the Selectivity index is on record as below 1 in experiment [2] and “<=12.1” in experiment [3]. In addition, the figures for the Protection in experiment [12] and in [13] were below 63% and below 40%, respectively. Moreover, the values for the half-maximal effective concentration (EC50) in experiment [4] and in experiment [6] were at least 10.3 µg/mL and above 125 µg/mL, respectively. Also, the CC50 in [7] was above 125 µg/mL.

On to `Cn1cc(C(=O)O)c(=O)c2cc(N)c(N3CCN(c4nc5ccccc5[nH]4)CC3)cc21`, for which the Protection in experiment [10] was 0%; in [14], below 1%. Besides, the concentration for a half-maximal effect (EC50) in experiment [4] and in experiment [6] was above 125 µg/mL each time. The same compound registered a CC50 in experiment [7] above 125 µg/mL.

Take `Cn1cc(C(=O)O)c(=O)c2cc(N)c(N3CCN(c4nc5cc(Cl)ccc5s4)CC3)cc21`: the Protection in experiment [10] is 3%; in experiment [15], below 8%. The Selectivity index in experiment [2] and in experiment [3] was below 1 in each case. Moreover, the EC50 in [4] and in experiment [6] was above 0.0021 µg/mL in each case. In experiment [7], this compound returned a 50% cytotoxic concentration (CC50) of 0.0021 µg/mL (≈ 0.00447 µM).

On to `Cn1cc(C(=O)O)c(=O)c2cc(N)c(N3CCN(c4cccc(C(F)(F)F)c4)CC3)cc21`, for which the Selectivity index in [16] is 40; in [2], 7; in experiment [3], “<=7”; in [22] it was 89; in experiment [24], 28. The cytotoxic concentration (CC50) in [17] worked out at 1.55 µg/mL (≈ 3.47 µM); in experiment [18], 8 µg/mL (≈ 17.9 µM); in experiment [7] it was 2.18 µg/mL (≈ 4.88 µM). The EC50 is 0.05 µg/mL (≈ 0.112 µM) in [19]; 0.2 µg/mL (≈ 0.448 µM) in [21]; at least 0.31 µg/mL in experiment [4]; 0.31 µg/mL (≈ 0.694 µM) in experiment [6]; 0.09 µg/mL (≈ 0.202 µM) in [25]. The results for the Protection in experiment [20] and in experiment [23] were below 78% and below 110%, respectively.

For the compound `Cn1cc(C(=O)O)c(=O)c2cc(N)c(N3CCN(c4nccs4)CC3)cc21`, the Selectivity index result in experiment [16] is listed as “>=1250”; in experiment [2] it was 9; in experiment [3] it was 14.6; in [22], “>=1667”; in experiment [24] it was 41. Moreover, the Protection is given as below 83% in experiment [26] and below 118% in experiment [27]. Moreover, the CC50 was 1.3 µg/mL (≈ 3.37 µM) in experiment [17], at least 100 µg/mL in experiment [18] and 1.17 µg/mL (≈ 3.04 µM) in experiment [7]. Further, the EC50 came to 0.03 µg/mL (≈ 0.0778 µM) in experiment [19]; 0.08 µg/mL (≈ 0.208 µM) in [21]; 0.08 µg/mL (≈ 0.208 µM) in experiment [4]; 0.13 µg/mL (≈ 0.337 µM) in experiment [6]; 0.06 µg/mL (≈ 0.156 µM) in experiment [25].
